Consider 8 molecules from patent US11434205B2, “Substituted imidazole carboxylate derivatives and the use thereof” (priority 2018, dated 2022).

Data set [1] concerns rats. It counts as in vivo, rat. The following applies: for recovery time of the test animals' righting reflex: rats of the MAP/HR figures, 2×ED50, tail vein, same value in min. The procedure: The Effects of the Compounds on the Circulatory Function were Measured in Rats Using a Small Animal Implanted Physiological Signal Telemetry System
The anesthetic activity of the compounds was assessed in rats using a LORR assay and the up and down method was used to determine ED50. […] A small animal implantable physiological signal telemetry system from DSI (Data Science International, Inc.) was used to measure the changes in heart rate (HR) and blood pressure in rats during 30 min after administration. Then mean arterial pressure (MAP) and HR were used as representative indicators to determine hemodynamic stability of the compounds of the present invention in rats.
A small animal implantable physiological signal telemetry system from DSI (Data Science International, Inc.) including implants (RATHD-521, DSI, United States), receiver boards (RPC-1, DSI, United States), signal conversion devices (DEM, DSI, USA), perfusion glue (DSI, USA), fibrin membrane (DSI, USA), etc.
First, animal models were established. A left ventricular catheter, an abdominal aortic catheter and ECG wires were placed into rats. At least one week after surgery, data were recorded.
Administration procedure: rats were put into a restraint device with a 20 G indwelling catheter placed into a lateral tail vein. After administration of 0.2 mL heparin, a pre-filled extension tube was attached and taped to the tail vein to secure the extension tube. Then the rats were removed from the restraint device to a cage before placing them together on the signal receiver. […] Finally, the pharmacological effects, adverse reactions, and behavioural manifestations of the rats were observed and recorded
Data collection: After setting the data collection parameters on the software, the power of the implant was turned on to start data collection. In this experiment, data recording frequency was set to 15 s. Data collection was continuously recorded for 30 min before and after administration of the drugs in rats. After data acquisition, the test was stopped.

Data set [2] has as its system rats. As to the kind of experiment: Loss of righting reflexes (LORR) assay in rats, ED50 by up and down method. It counts as in vivo, rat. The note with it: tail vein; for ED50: Rattus norvegicus. The procedure, abridged:
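ED50 obtained by up-and-down dosing, with righting-reflex loss over 30 s counted as general anesthesia. Compounds injected into the tail vein (0.1 mL/s) of male Sprague-Dawley rats weighing 250-300 g.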

Data set [3] relates to secretion of cortisol, H295R cell line. Put plainly: cells. It counts as cell-based. The following applies: for EC50: read-out: EC50 (Cortisol). On the procedure: (§1) The Effects of the Compounds on Adrenocortical Function In Vitro Test
(§2) Then secretion of the cortisol and corticosterone in the supernatant, was measured using HPLC-MS/MS method to determine whether the compounds of the present invention had adrenotoxic potential.

The subject of data set [4] is secretion of corticosterone, H295R cell line. Put plainly: cells. It counts as cell-based. The following applies: for EC50: read-out: EC50 (Corticosterone). The procedure:
as §1, §2

In data set [5] the test system is rats. On the procedure:
Adult male Sprague-Dawley rats (250-300 g) were selected for the experiment. […] The anesthesia effects of the compounds were assessed in rats using a LORR assay and a period >30 s was considered as an indicator of general anesthesia. Then the up and down method was used to determine 50% effective dose (ED50). The drugs were administered through the tail vein of rats in a volume of 0.6 mL and at a rate of 0.1 mL/s.

Data set [6] concerns rats. Put plainly: Pharmacological characteristics at equivalent doses (2×ED50) in rats. The note with it: 2×ED50, tail vein; for Adverse reactions: Tremor (incidence): animals affected/animals; for Onset time: time of LORR; for Adverse reactions: Red urine (incidence): DMSO solution (DMSO alone 10/10). The procedure, abridged: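 Anesthesia onset, recorded as time of LORR, was measured after a 2×ED50 tail-vein injection (0.6 mL, 0.1 mL/s). Animals were male Sprague-Dawley rats of 250-300 g, n=8.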

Data set [7] relates to rats. On the procedure: Pharmacological Effects of the Compounds on Continuous Infusion in Rats
Adult male Sprague-Dawley rats with body weight ranging from 250 to 300 gm were selected for continuous infusion test. […] Time to recovery of righting reflex from stopping infusion, and time to fully awake from stopping infusion were recorded.
The source holds these as a separate data set.

Data set [8] relates to rats. It counts as in vivo, rat. The note with it: rats of the MAP/HR figures, 2×ED50, tail vein.
[9] abbreviates: H295R cell line, 0.1-10000 nM, HPLC-MS/MS, Table D3.
Where [10] appears, read: H295R cell line, 0.1-10000 nM, HPLC-MS/MS, Table E3.
Setting [11] is: H295R, 0.1-10000 nM, HPLC-MS/MS.
Setting [12] is: continuous tail vein infusion at 2×MIR, LORR maintained 1 hour, Table C4.
Setting [13] is: continuous tail vein infusion at 2×MIR, LORR maintained 1 hour, Table D4.
[14] abbreviates: continuous tail vein infusion at 2×MIR, LORR maintained 1 hour, Table E4.

Where “and” joins values, the source holds several entries; their conditions need not be identical. Equal values may be shown once. Entries after “also recorded” stand apart in the source; their conditions may differ. Read-outs that look alike come from different tables or passages of the source. Marks after values point to notes of the source that are not given here.

For the molecule `COC(=O)C1(OC(=O)c2cncn2[C@H](C)c2ccccc2)CC1` [CPMM, cyclopropyl methoxycarbonyl methylate, reference compound], the “effect on the circulatory function (MAP, HR)” value with rats [1] (rats, 2×ED50, 30 min after administration) is “almost no inhibitory effect on the circulatory function”. In the data set with rats [2] (brackets = 95% confidence limit), the “ED50 (mg/kg)” value is 0.78 (0.74-0.82)* mg/kg. Further, the “Cortisol as an indicator to determine the presence of inhibition” value in data set [3] (setting [9]) is given as 1; in data set [3] (setting [10]), 1; in data set [3] (H295R, Table A3) it was 1; in data set [3] (H295R, Table B3), 1; in data set [3] (H295R, Table C3), 1. The EC50 is more than 10 nM in data set [3] (setting [9]); more than 10 nM in data set [3] (setting [10]); more than 10 nM in data set [3] (setting [11]); more than 100 nM in data set [4] (setting [9]); more than 100 nM in data set [4] (setting [10]); more than 100 nM in data set [4] (setting [11]). Moreover, the “Corticosterone as an indicator to determine the presence of inhibition” value worked out at 1 in data set [4] (setting [9]); 1 in data set [4] (setting [10]); 1 in data set [4] (H295R, Table A3); 1 in data set [4] (H295R, Table B3); 1 in data set [4] (H295R, Table C3). Moreover, in the data set with rats [5], the Approximate therapeutic index is more than 10. In the data set on rats [5], the “Minimal lethal dose” value is more than 7.8 mg/kg. The “Adverse reactions: Convulsions (incidence)” value in the data set on rats [6] is “Convulsions (4/10), Tremor and 4/10 and Convulsions (4/10), and (4/10),”; in the data set on rats [7] (continuous infusion 2×MIR), 3/6. The “Adverse reactions: Myoclonus (incidence)” value in the data set on rats [6] is “(5/10), Myoclonus (5/10); also recorded: Myoclonus (5/10)”; with rats [7] (continuous infusion 2×MIR), “Myoclonus (5/6)”. The “Righting reflex duration” value in the data set with rats [6] turned out to be 1.62 ± 0.63 min. Also, the “Adverse reactions: Tremor (incidence)” value in the data set with rats [6] is “(5/10), Myoclonus (5/10) and 5/10 and Tremor (5/10), and (5/10),”; with rats [7] (continuous infusion 2×MIR), 5/6. Moreover, the “Onset time” value with rats [6] is 0.26 ± 0.08 min; in the data set on rats [7] (setting [12]), 3 to 4 min; in the data set on rats [7] (setting [13]), 3 to 4 min; in the data set on rats [7] (setting [14]), 3 to 4 min; in the data set with rats [7] (emulsion, continuous infusion at 2×MIR), 3 to 4 min. Moreover, the “Recovery time after stopping infusion” value in the data set on rats [7] (after 1 hour infusion at 2×MIR), with rats [7] (setting [12]), in the data set on rats [7] (setting [13]) and in the data set with rats [7] (setting [14]) was 7 to 8 min in each case.

For `CC(=O)C1(OC(=O)c2cncn2[C@H](C)c2ccccc2)CC1` [Compound C1], the “recovery time of the test animals' righting reflex” value in the data set with rats [1] was found to be 2.17 min. Moreover, in the data set with rats [8], the “recovery time of the test animals' righting reflex” value worked out at 130 s. For the same molecule, the ED50 in the data set on rats [2] (class symbols) was in the range of 0.01 to 0.1 mg/kg. Further, in the data set on rats [5], the Approximate therapeutic index was more than 90 and the “Minimal lethal dose” value was more than 20 mg/kg. For the same molecule, in the data set on rats [6], the “Righting reflex duration” value worked out at 1.9 ± 0.64 min; the “Adverse reactions: Red urine (incidence)” value is “(8/8)”; the “Adverse reactions: Tremor (incidence)” value is “Tremor (8/8), Red urine”; the “Onset time” value was 0.15 ± 0.09 min.

`C=CC1(OC(=O)c2cncn2[C@H](C)c2ccccc2)COC1` [Compound D7]: the “recovery time of the test animals' righting reflex” value in the data set on rats [1] amounted to 6.83 min. Also, the “recovery time of the test animals' righting reflex” value in the data set with rats [8] is given as 410 s. This molecule gave an ED50 in the data set on rats [2] (class symbols) of 0.5 to 1 mg/kg. In the data set with rats [5], the Approximate therapeutic index is given as more than 10 and the “Minimal lethal dose” value is given as more than 6 mg/kg. Besides, in the data set on rats [6], the “Righting reflex duration” value came to 3.20 ± 0.81 min, the “Adverse reactions: Red urine (incidence)” value is on record as “Red urine (8/8)” and the “Onset time” value was determined as 0.10 ± 0.01 min.

Take `C=C=CC1(OC(=O)c2cncn2[C@H](C)c2ccccc2)CCOCC1` [Compound D34]: the “recovery time of the test animals' righting reflex” value with rats [1] came to 2.83 min. For the same molecule, in the data set on rats [8], the “recovery time of the test animals' righting reflex” value turned out to be 170 s. In the data set on rats [2] (class symbols), this molecule showed an ED50 of 0.5 to 1 mg/kg. Besides, in the data set on rats [5], the Approximate therapeutic index is reported as more than 13 and the “Minimal lethal dose” value was more than 8 mg/kg. For the same molecule, in the data set on rats [6], the “Righting reflex duration” value worked out at 4.50 ± 0.86 min, the “Adverse reactions: Red urine (incidence)” value is recorded as “Red urine (8/8)” and the “Onset time” value is listed as 0.11 ± 0.04 min.

For `C[C@H](c1ccccc1)n1cnc(F)c1C(=O)OC1CCC1` [Compound E9], the “recovery time of the test animals' righting reflex” value in the data set with rats [1] is 1.28 min. Moreover, the “recovery time of the test animals' righting reflex” value in the data set on rats [8] is listed as 77 s. For the same molecule, in the data set on rats [2] (class symbols), the “ED50 (mg/kg)” value is on record as “B (B means that the measured ED50 is in the range of 0.10-0.50 mg/kg (excluding 0.10 mg/kg, including 0.50 mg/kg).)”. In addition, in the data set with rats [5], the Approximate therapeutic index is on record as more than 48 and the “Minimal lethal dose” value was more than 6 mg/kg. In addition, in the data set with rats [6], the “Righting reflex duration” value is 1.24 ± 0.79 min, the “Sedation duration (mg/kg)” value is 9.29 ± 2.07, the “Adverse reactions: Red urine (incidence)” value is “(8/8)” and the “Onset time” value is recorded as 0.42 ± 0.20 min.

As to `C[C@H](c1ccccc1)n1cnc(F)c1C(=O)OC1COC1` [Compound E10], the “recovery time of the test animals' righting reflex” value in the data set on rats [1] is 2.70 min. Moreover, the “recovery time of the test animals' righting reflex” value in the data set on rats [8] was 162 s. The ED50 with rats [2] (class symbols) is 0.5 to 1 mg/kg. Besides, in the data set with rats [5], the Approximate therapeutic index is listed as more than 14 and the “Minimal lethal dose” value was more than 10 mg/kg. In the data set on rats [6], the “Righting reflex duration” value came to 2.59 ± 0.85 min, the “Adverse reactions: Red urine (incidence)” value is “(8/8)” and the “Onset time” value came to 0.21 ± 0.05 min.

With `C[C@H](c1ccccc1)n1cnc(F)c1C(=O)OC1CSC1` [Compound E11], in the data set on rats [1], the “recovery time of the test animals' righting reflex” value was 1.55 min. For the same molecule, in the data set with rats [8], the “recovery time of the test animals' righting reflex” value is recorded as 93 s. The molecule also had an ED50 with rats [2] (class symbols) of 0.01 to 0.1 mg/kg. Further, in the data set with rats [5], the Approximate therapeutic index is recorded as more than 60 and the “Minimal lethal dose” value is recorded as more than 4 mg/kg. In addition, in the data set on rats [6], the “Righting reflex duration” value is 1.52 ± 0.53 min, the “Adverse reactions: Red urine (incidence)” value is “(8/8)” and the “Onset time” value was 0.57 ± 0.25 min.

In the case of `CC#CC1(OC(=O)c2c(F)ncn2[C@H](C)c2ccccc2)COC1` [Compound E15], in the data set on rats [1], the “recovery time of the test animals' righting reflex” value is on record as 1.20 min. Also, the “recovery time of the test animals' righting reflex” value in the data set on rats [8] is on record as 72 s. The molecule also yielded an ED50 in the data set on rats [2] (class symbols) of 0.1 to 0.5 mg/kg. In the data set on rats [5], the Approximate therapeutic index is given as more than 32 and the “Minimal lethal dose” value is more than 5 mg/kg. In addition, in the data set with rats [6], the “Righting reflex duration” value is recorded as 1.10 ± 0.89 min; the “Adverse reactions: Red urine (incidence)” value is on record as “urine (8/8)”; the “Adverse reactions: Tremor (incidence)” value was “(2/8), Red”; the “Onset time” value is recorded as 0.42 ± 0.13 min.

The term EC50 denotes the concentration giving half of the maximal effect. By ED50 is commonly meant the midpoint of the dose-response relation. Read a low ED50 as greater potency.
